Test results reported in patent US11007183B2, “Cancer treatments using combinations of PI3K/Akt pathway and ERK inhibitors” (BIOMED VALLEY DISCOVERIES, INC., priority 2013, dated 2021).

How the values were obtained:
[1] = tested on: HCT116 human colorectal carcinoma xenograft; assay: HCT116 xenograft tumor growth delay (TGD) study; type: in vivo, mice
Procedure: Female athymic nude mice (Crl:NU(Ncr)-Foxn1^nu, Charles River) were eight weeks old with a body weight (BW) range of 14.6 to 25.7 grams on Day 1 of the study. The animals were fed ad libitum water (reverse osmosis, 1 ppm Cl), and NIH 31 Modified and Irradiated Lab Diet® consisting of 18.0% crude protein, 5.0% crude fat, and 5.0% crude fiber. The mice were housed on irradiated Enrich-O'Cobs™ Laboratory Animal Bedding in static microisolators on a 12-hour light cycle at 20-22° C. (68-72° F.) and 40-60% humidity.
HCT116 human colon carcinoma cells were cultured in RPMI-1640 medium supplemented with 10% fetal bovine serum, 2 mM glutamine, 100 units/mL penicillin G sodium, 100 μg/mL streptomycin sulfate, and 25 μg/mL gentamicin. The tumor cells were grown in tissue culture flasks in a humidified incubator at 37° C., in an atmosphere of 5% CO2 and 95% air.
The HCT116 cells used for implantation were harvested during exponential growth and resuspended in 50% Matrigel (BD Biosciences): 50% phosphate buffered saline at a concentration of 2.5×10^7 cells/mL. On the day of tumor implant, each test mouse was injected subcutaneously in the right flank with 5×10^6 cells (0.2 mL cell suspension), and tumor growth was monitored as the average size approached the target range of 100 to 150 mm^3. Tumors were measured in two dimensions using calipers, and volume was calculated using the formula: Tumor Volume (mm^3)=(w^2×l)/2 where w=width and l=length, in mm, of the tumor. Tumor weight may be estimated with the assumption that 1 mg is equivalent to 1 mm^3 of tumor volume.
Ten days after tumor implantation, designated as Day 1 of the study, the animals were sorted into nine groups (Groups 1-9) each consisting of fifteen mice and one group (Group 10) consisting of ten mice.
BVD-523 doses were prepared by suspending the required amount of BVD-523 powder in 1% carboxymethyl cellulose (CMC) in deionized water (“Vehicle”). A 10 mg/mL BVD-523 stock was prepared, and was used to dose the 100 mg/kg BVD-523 group. Aliquots of the stock were diluted with the vehicle to a concentration of 5.0 mg/mL, which provided a 50 mg/kg BVD-523 dosage in a dosing volume of 10 mL/kg. The BVD-523 doses were stored at 4° C. for up to one week. The 1% CMC vehicle was used to dose the control group.
Paclitaxel (Lot CP2N10007) was purchased as a dry powder from Phyton Biotech, LLC (Fort Worth, Tex.). A paclitaxel stock solution (30 mg/mL) in 50% ethanol: 50% Cremophor EL was prepared and stored at room temperature protected from light during the dosing period. On each day of dosing, an aliquot of the paclitaxel stock was diluted with 5% dextrose in water (D5W) to yield a 3.0 mg/mL paclitaxel dosing solution in a vehicle consisting of 5% ethanol: 5% Cremophor EL: 90% D5W.
On Day 1 of the study, mice were sorted into nine groups (Group 1-9) each consisting of fifteen mice and one group (Group 10) consisting of ten mice, and dosing was initiated according to the treatment plan summarized in Table 4 below. All doses were given by oral gavage (p.o.) except paclitaxel, which was given i.v. For each agent, the dosing volume of 10 mL/kg (0.2 mL per 20 grams of BW) was scaled to the BW of the individual animal. […] For bid dosing, dosing was initiated in the afternoon of Day 1, so that one dose was given on the first day (“first day 1 dose”).
Group 1 received 1% CMC vehicle p.o. bid to end, and served as the control group for calculation of % TGD. Group 10 received paclitaxel i.v. at 30 mg/kg once every other day (qod) for five doses (qod×5), and served as the positive control for the model.
Groups 4 and 5 received 50 and 100 mg/kg BVD-523, respectively, p.o. bid to end.

parental HCT116 cells = assay: Combination proliferation assay (Loewe/Bliss); type: cell-based; conditions: Homo sapiens, HCT-116, 2.5% serum, mean of n=4 separate combinations, read-out: IC50 (single agent, derived from combination assay plates)
Procedure: Cells were seeded into triplicate 96-well plates at the densities indicated in Table 11 in McCoy's 5A media containing 2.5% FBS and allowed to adhere overnight prior to addition of test compound or vehicle control. Combinations were tested using either a 10×8 or for the follow-up HCT116 study a 3×1 dose matrix.
Test compounds were incubated with the cells for 72 h at 37° C., 5% CO2 in a humidified atmosphere. CellTiter-Glo® reagent (Promega, Madison, Wis.) was added according to manufacturer's instructions and luminescence detected using the BMG FLUOstar plate reader (BMG Labtech, Ortenberg, Germany). The average media only background value was deducted and the data analysed.
For the 10×8 combination assays the combination interactions across the dose matrix were determined by the Loewe Additivity and Bliss independence models using Chalice™ Combination Analysis Software (Horizon Discovery Group, Cambridge, Mass.) as outlined in the user manual (available at chalice.horizondiscovery.com/chalice-portal/documentation/analyzer/home.jsp). Synergy is determined by comparing the experimentally observed level of inhibition at each combination point with the value expected for additivity, which is derived from the single-agent responses along the edges of the matrix. […]

[2] = Group 1 (vehicle) vs Group 4 (BVD-523 50 mg/kg po bid to end)
[3] = Group 4: BVD-523 50 mg/kg po bid to end
[4] = Group 5: BVD-523 100 mg/kg po bid to end

SMILES: CC(C)Nc1cc(-c2c[nH]c(C(=O)N[C@H](CO)c3cccc(Cl)c3)c2)c(Cl)cn1 [BVD-523]
- Overall activity in the HCT116 xenograft model ([1]; BVD-523 50 mg/kg p.o. bid to end): active
- Are survival curves diff.? [1, 2]: Yes
- Hazard Ratio [1, 2]: 4.813
- Logrank test Chi square [1, 2]: 21.86
- Median survival Ratio (Column A/Column B) [1, 2]: 0.7517
- % TGD [1, 3]: 33%
- MTV (n): number of animals on D 45 (45-day survivors) [1, 3]: (5)
- MTV D 45 (median tumor volume) [1, 3]: 1666 mm^3
- Median TTE [1, 3]: 43.5 days
- Regressions CR [1, 3]: 0
- Regressions PR [1, 3]: 0
- Regressions TFS [1, 3]: 0
- T − C [1, 3]: 10.8 days
- % TGD [1, 4]: 38%
- MTV (n): number of animals on D 45 (45-day survivors) [1, 4]: (11)
- MTV D 45 (median tumor volume) [1, 4]: 405 mm^3
- Median TTE [1, 4]: 45.0 days
- Regressions CR [1, 4]: 0
- Regressions PR [1, 4]: 0
- Regressions TFS [1, 4]: 0
- T − C [1, 4]: 12.3 days
- IC50 (parental HCT116 cells): 0.13 µM
